# Measurements from ChEMBL document CHEMBL1152385, “Cyanoguanidine-based lactam derivatives as a novel class of orally bioavailable factor Xa inhibitors” (Bioorg Med Chem Lett, 2009).
# Legend:
# Coagulation factor X = Coagulation factor X (Homo sapiens, UniProt P00742); experiment: Inhibition of human factor 10a-mediated cleavage of synthetic substrate S-2222
# Cytochrome P450 3A4 [1] = target: T1, Cytochrome P450 3A4 (Homo sapiens, UniProt P08684); experiment: Inhibition of CYP3A4 using BFC as substrate; assay type: ADME
# Cytochrome P450 1A2 = Cytochrome P450 1A2 (Homo sapiens, UniProt P05177); experiment: Inhibition of CYP1A2; assay type: ADME
# [2] = Half life in monkey at 10 mg/kg, iv; assay type: ADME, organism-based, Macaca mulatta; parameters: dose 10 mg/kg, route intravenous; conditions: rhesus monkey, in vivo
# Plasminogen = Plasminogen (Homo sapiens, UniProt P00747); experiment: Inhibition of plasmin
# Cytochrome P450 2C8 = Cytochrome P450 2C8 (Homo sapiens, UniProt P10632); experiment: Inhibition of CYP2C8; assay type: ADME
# [3] = Half life in rat at 7 mg/kg, iv; assay type: ADME, organism-based; parameters: dose 7 mg/kg, route intravenous; conditions: in vivo
# [4] = Oral Bioavailability in rat at 10 mg/kg; assay type: ADME, organism-based; conditions: in vivo
# Rattus norvegicus = experiment: Total clearance in rat at 7 mg/kg, iv; assay type: ADME, organism-based; parameters: dose 7 mg/kg, route intravenous; conditions: in vivo
# Prothrombin = Prothrombin (Homo sapiens, UniProt P00734); experiment: Inhibition of thrombin
# Cytochrome P450 2C19 [5] = target: T2, Cytochrome P450 2C19 (Homo sapiens, UniProt P33261); experiment: Inhibition of CYP2C19; assay type: ADME
# Cytochrome P450 2C9 [6] = target: T3, Cytochrome P450 2C9 (Homo sapiens, UniProt P11712); experiment: Inhibition of CYP2C9 in human TC5 cells; assay type: ADME, cell-based
# [7] = target: Amine oxidase [flavin-containing] A (Rattus norvegicus, UniProt P21396); experiment: Inhibition of rat MAO-A at 10 uM
# [8] = target: Nuclear receptor subfamily 1 group I member 2 (Homo sapiens, UniProt O75469); experiment: Activity at PXR
# [9] = Mean residence time in rat at 7 mg/kg, iv; assay type: ADME, organism-based; parameters: dose 7 mg/kg, route intravenous; conditions: in vivo
# [10] = target: T4, Voltage-gated L-type calcium channel (Rattus norvegicus, UniProt P22002+Q02485+P27732); experiment: Inhibition of rat DHP binding site of L-type calcium channel at 10 uM
# [11] = Bioavailability in monkey at 10 mg/kg, po; assay type: ADME, organism-based, Macaca mulatta; conditions: rhesus monkey, in vivo
# [12] = Volume of distribution at steady state in rat at 7 mg/kg, iv; assay type: ADME, organism-based; parameters: dose 7 mg/kg, route intravenous; conditions: in vivo, read-out: Vdss
# [13] = Oral bioavailability in dog at 7 mg/kg; assay type: ADME, organism-based, Canis lupus familiaris; conditions: in vivo
# [14] = Volume of distribution at steady state in dog at 8.3 mg/kg, iv; assay type: ADME, organism-based, Canis lupus familiaris; parameters: dose 8.3 mg/kg, route intravenous; conditions: in vivo, read-out: Vdss
# [15] = target: Amine oxidase [flavin-containing] B (Rattus norvegicus, UniProt P19643); experiment: Inhibition of rat MAO-B at 10 uM
# Cytochrome P450 3A4 [16] = target: T1, Cytochrome P450 3A4; experiment: Inhibition of CYP3A4 using BZR as substrate; assay type: ADME
# Cytochrome P450 2B6 = Cytochrome P450 2B6 (Homo sapiens, UniProt P20813); experiment: Inhibition of CYP2B6; assay type: ADME
# Cytochrome P450 3A4 [17] = target: T1, Cytochrome P450 3A4; experiment: Inhibition of CYP3A4 in human TC5 cells; assay type: ADME, cell-based
# [18] = target: Urokinase-type plasminogen activator (Homo sapiens, UniProt P00749); experiment: Inhibition of u-PA
# Cytochrome P450 2C19 [19] = target: T2, Cytochrome P450 2C19; experiment: Inhibition of CYP2C19 in human TC5 cells; assay type: ADME, cell-based
# [20] = Mean residence time in monkey at 10 mg/kg, iv; assay type: ADME, organism-based, Macaca mulatta; parameters: dose 10 mg/kg, route intravenous; conditions: rhesus monkey, in vivo
# Cytochrome P450 2D6 [21] = target: T5, Cytochrome P450 2D6 (Homo sapiens, UniProt P10635); experiment: Inhibition of CYP2D6 in human TC5 cells; assay type: ADME, cell-based
# [22] = target: Vitamin K-dependent protein C (Homo sapiens, UniProt P04070); experiment: Inhibition of activated protein C
# [23] = Half life in dog at 8.3 mg/kg, iv; assay type: ADME, organism-based, Canis lupus familiaris; parameters: dose 8.3 mg/kg, route intravenous; conditions: in vivo
# Cytochrome P450 2C9 [24] = target: T3, Cytochrome P450 2C9; experiment: Inhibition of CYP2C9; assay type: ADME
# [25] = target: T4, Voltage-gated L-type calcium channel; experiment: Inhibition of rat verapamil binding site of L-type calcium channel at 10 uM
# [26] = target: Tissue-type plasminogen activator (Homo sapiens, UniProt P00750); experiment: Inhibition of t-PA
# Cytochrome P450 2D6 [27] = target: T5, Cytochrome P450 2D6; experiment: Inhibition of CYP2D6; assay type: ADME
# Canis familiaris = experiment: Total clearance in dog at 8.3 mg/kg, iv; assay type: ADME, organism-based, Canis lupus familiaris; parameters: dose 8.3 mg/kg, route intravenous; conditions: in vivo
# [28] = Mean residence time in dog at 8.3 mg/kg, iv; assay type: ADME, organism-based, Canis lupus familiaris; parameters: dose 8.3 mg/kg, route intravenous; conditions: in vivo
# Rhesus monkey = experiment: Total clearance in monkey at 10 mg/kg, iv; assay type: ADME, organism-based, Macaca mulatta; parameters: dose 10 mg/kg, route intravenous; conditions: in vivo
# [29] = Volume of distribution at steady state in monkey at 10 mg/kg, iv; assay type: ADME, organism-based, Macaca mulatta; parameters: dose 10 mg/kg, route intravenous; conditions: rhesus monkey, in vivo, read-out: Vdss
# T1 sequence (P08684 whole entry): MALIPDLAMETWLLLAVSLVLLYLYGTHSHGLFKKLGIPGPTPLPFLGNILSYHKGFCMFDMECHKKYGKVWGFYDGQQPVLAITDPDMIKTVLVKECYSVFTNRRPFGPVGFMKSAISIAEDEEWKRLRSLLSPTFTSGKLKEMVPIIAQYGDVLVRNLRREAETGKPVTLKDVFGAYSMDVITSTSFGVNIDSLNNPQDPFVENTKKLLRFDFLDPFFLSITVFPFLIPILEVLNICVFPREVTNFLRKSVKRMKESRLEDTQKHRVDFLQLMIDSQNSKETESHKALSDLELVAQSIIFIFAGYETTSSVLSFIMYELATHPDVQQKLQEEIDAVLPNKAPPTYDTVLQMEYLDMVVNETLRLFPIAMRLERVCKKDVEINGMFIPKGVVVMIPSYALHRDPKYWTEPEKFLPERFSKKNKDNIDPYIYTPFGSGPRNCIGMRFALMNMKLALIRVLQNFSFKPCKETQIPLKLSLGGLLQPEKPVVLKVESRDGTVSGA
# Chain of Coagulation factor X (P00742 41-179 limits assumed): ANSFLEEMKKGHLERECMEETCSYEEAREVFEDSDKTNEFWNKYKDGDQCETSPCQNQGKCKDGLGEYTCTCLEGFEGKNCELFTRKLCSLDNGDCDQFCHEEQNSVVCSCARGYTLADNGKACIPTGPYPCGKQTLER
# Chain of Coagulation factor X (P00742 235-488 limits assumed): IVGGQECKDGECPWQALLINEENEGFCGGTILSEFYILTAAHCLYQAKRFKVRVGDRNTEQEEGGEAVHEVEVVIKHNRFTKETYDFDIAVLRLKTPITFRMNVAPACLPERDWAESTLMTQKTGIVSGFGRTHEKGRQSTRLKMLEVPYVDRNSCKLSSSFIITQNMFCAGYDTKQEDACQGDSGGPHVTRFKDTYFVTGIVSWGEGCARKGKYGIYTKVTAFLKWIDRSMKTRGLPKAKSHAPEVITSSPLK
# T3 sequence (P11712 whole entry): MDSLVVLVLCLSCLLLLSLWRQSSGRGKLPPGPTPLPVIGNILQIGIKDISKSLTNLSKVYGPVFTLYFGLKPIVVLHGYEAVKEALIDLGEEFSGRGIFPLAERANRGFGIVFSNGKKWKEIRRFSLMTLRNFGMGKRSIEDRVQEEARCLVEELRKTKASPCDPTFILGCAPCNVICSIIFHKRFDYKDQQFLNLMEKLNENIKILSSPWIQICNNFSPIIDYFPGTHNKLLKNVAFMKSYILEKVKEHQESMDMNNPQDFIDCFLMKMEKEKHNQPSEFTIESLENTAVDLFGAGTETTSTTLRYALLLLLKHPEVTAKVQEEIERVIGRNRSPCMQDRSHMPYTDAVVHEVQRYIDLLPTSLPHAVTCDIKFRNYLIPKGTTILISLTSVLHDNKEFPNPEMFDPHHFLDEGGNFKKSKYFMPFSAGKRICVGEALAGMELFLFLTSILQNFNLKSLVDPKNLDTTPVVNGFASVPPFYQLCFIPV
# T2 sequence (P33261 whole entry): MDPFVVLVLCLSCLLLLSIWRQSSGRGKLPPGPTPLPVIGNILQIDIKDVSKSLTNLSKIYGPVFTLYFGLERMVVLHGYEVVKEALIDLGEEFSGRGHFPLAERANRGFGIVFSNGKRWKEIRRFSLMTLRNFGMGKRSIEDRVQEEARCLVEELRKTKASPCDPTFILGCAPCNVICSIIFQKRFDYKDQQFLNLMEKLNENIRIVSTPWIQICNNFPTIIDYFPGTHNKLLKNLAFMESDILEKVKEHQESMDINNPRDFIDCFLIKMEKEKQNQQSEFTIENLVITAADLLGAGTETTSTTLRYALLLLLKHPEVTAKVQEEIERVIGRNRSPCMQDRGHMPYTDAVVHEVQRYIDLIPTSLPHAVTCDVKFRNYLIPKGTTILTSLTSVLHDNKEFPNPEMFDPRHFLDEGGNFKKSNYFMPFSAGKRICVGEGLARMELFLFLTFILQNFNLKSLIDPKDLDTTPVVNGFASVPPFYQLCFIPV
# T5 sequence (P10635 whole entry): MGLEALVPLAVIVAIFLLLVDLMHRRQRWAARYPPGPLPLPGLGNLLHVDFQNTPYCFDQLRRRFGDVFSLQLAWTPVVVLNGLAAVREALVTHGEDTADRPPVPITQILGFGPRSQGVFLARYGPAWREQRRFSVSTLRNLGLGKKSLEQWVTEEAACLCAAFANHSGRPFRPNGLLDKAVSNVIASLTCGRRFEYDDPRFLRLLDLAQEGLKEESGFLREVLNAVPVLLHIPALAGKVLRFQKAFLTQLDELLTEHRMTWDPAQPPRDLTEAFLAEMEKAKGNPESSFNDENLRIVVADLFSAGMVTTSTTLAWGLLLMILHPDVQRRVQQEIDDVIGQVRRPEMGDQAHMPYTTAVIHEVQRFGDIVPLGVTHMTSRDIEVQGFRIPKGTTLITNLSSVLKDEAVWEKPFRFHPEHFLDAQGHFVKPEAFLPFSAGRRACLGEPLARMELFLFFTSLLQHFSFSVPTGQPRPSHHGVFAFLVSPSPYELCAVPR
# Chain of Amine oxidase [flavin-containing] B (P19643 whole entry): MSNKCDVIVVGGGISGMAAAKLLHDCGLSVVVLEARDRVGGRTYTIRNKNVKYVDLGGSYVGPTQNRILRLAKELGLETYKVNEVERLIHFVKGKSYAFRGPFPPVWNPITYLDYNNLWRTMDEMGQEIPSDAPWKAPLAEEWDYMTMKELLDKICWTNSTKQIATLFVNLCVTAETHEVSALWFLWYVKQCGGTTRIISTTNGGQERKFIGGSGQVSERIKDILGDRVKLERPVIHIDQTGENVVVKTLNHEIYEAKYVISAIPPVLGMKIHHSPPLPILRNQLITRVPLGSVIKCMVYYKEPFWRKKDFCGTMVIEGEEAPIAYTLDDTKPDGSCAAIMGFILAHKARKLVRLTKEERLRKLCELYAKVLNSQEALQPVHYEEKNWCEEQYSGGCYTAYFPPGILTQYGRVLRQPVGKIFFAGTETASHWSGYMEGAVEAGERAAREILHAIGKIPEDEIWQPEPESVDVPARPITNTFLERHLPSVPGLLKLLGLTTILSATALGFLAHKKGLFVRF
# Chain of Vitamin K-dependent protein C (P04070 43-197 limits assumed): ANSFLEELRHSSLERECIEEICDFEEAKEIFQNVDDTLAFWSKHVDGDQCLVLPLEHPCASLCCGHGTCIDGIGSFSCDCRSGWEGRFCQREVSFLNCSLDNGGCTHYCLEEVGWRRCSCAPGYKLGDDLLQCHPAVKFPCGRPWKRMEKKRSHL
# Chain of Vitamin K-dependent protein C (P04070 212-461 limits assumed): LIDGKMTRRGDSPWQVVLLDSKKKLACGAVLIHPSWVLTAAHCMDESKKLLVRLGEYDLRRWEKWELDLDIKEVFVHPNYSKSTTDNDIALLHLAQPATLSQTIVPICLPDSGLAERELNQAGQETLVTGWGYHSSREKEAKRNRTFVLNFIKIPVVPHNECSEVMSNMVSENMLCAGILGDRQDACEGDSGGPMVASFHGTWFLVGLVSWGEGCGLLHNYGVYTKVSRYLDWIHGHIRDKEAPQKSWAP
# Chain of Amine oxidase [flavin-containing] A (P21396 whole entry): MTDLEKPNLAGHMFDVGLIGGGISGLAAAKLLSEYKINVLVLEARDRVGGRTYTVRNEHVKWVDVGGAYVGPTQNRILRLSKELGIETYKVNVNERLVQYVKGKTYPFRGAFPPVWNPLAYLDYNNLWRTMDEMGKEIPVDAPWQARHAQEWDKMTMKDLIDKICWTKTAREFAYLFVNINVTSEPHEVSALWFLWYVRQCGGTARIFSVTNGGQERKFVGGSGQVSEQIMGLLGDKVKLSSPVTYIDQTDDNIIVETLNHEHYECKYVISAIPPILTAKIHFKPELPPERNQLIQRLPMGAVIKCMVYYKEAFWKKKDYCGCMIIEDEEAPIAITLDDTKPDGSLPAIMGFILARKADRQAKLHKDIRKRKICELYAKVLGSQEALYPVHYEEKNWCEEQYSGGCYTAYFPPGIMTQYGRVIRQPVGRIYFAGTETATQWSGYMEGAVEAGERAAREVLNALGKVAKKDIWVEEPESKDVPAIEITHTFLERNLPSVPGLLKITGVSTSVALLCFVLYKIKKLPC
# Chain of Plasminogen (P00747 97-580 limits assumed): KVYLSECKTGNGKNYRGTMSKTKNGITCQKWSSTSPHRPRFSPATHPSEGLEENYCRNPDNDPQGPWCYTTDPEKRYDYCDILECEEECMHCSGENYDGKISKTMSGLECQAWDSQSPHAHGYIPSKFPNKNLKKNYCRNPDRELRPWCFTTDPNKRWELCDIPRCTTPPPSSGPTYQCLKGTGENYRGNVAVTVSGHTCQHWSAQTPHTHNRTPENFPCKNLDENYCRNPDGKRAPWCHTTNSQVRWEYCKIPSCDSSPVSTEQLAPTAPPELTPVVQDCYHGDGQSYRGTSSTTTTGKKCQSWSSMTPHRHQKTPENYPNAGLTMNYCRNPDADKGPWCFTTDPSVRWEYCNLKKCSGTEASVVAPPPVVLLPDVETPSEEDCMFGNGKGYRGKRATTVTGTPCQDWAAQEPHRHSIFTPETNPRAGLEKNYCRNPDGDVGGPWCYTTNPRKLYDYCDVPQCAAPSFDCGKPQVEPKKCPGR
# Chain of Plasminogen (P00747 581-810 limits assumed): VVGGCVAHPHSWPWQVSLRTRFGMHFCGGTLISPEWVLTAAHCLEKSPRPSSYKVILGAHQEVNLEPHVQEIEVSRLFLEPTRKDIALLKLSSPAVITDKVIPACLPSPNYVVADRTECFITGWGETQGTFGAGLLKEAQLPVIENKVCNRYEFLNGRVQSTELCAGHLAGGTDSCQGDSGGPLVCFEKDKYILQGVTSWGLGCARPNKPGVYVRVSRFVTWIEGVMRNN
compound,measurement,setting,value
Cc1cc2cc(N=C(NC#N)NC3CCCCCN(CC(=O)N4CCCC4)C3=O)ccc2o1 (racemic),IC50,Coagulation factor X,195 nM
Cc1cc2cc(N/C(=N\C#N)N[C@H]3CCCCN(CC(=O)N4CCC[C@H]4CN)C3=O)ccc2o1,IC50,Coagulation factor X,386 nM
Cc1cc2cc(N=C(NC#N)N[C@@H]3CCN(CC(=O)N4CCCC4)C3=O)ccc2o1,IC50,Coagulation factor X,30000 nM
Cc1cc2ccc(N/C(=N\C#N)N[C@H]3CCCCN(CC(=O)N4CCCC4)C3=O)cc2[nH]1,IC50,Coagulation factor X,1300 nM
N#C/N=C(\Nc1ccc2ccccc2c1)N[C@H]1CCCCN(CC(=O)N2CCCC2)C1=O,IC50,Coagulation factor X,780 nM
N#C/N=C(\Nc1ccc2oc(C#N)cc2c1)N[C@H]1CCCCN(CC(=O)N2CCCC2)C1=O,IC50,Coagulation factor X,2600 nM
Cc1oc2ccc(N=C(NC#N)N[C@H]3CCCCN(CC(=O)N4CCCC4)C3=O)cc2c1C,IC50,Coagulation factor X,349 nM
CC(=O)NC[C@H]1CCCN1C(=O)CN1CCCC[C@H](N/C(=N\C#N)Nc2ccc3oc(C)cc3c2)C1=O,IC50,Coagulation factor X,28 nM
same,EC,Plasma,33 µM
Cc1cc2ccc(N/C(=N\C#N)N[C@H]3CCCCN(CC(=O)N4CCCC4)C3=O)cc2o1,IC50,Coagulation factor X,> 34000 nM
Cc1cc2cc(N=C(NC#N)N[C@H]3CCCCN(CC(=O)N4CCCC4)C3=O)ccc2[nH]1,IC50,Coagulation factor X,> 34000 nM
Cc1cc2cc(N=C(NC#N)N[C@H]3CCCCN(CC(=O)N4CCCC4)C3=O)ccc2s1,IC50,Coagulation factor X,2880 nM
Cc1cc2cc(N/C(=N\C#N)N[C@H]3CCCCN(CC(=O)N4CC5CC5C4)C3=O)ccc2o1 (stereo partly drawn),IC50,Coagulation factor X,15 nM
same,EC,Plasma,56 µM
Cc1cc2cc(N/C(=N\C#N)N[C@H]3CCCCN(CC(=O)N4CCC(Cc5ccccc5)C4)C3=O)ccc2o1 (stereo partly drawn),IC50,Coagulation factor X,53 nM
same,EC,Plasma,>50 µM
Cc1coc2ccc(N=C(NC#N)N[C@H]3CCCCN(CC(=O)N4CCCC4)C3=O)cc12,IC50,Coagulation factor X,2940 nM
Cc1cc2cc(N/C(=N\C#N)N[C@H]3CCCCN(CC(=O)N4CCCC4Cc4ccccc4)C3=O)ccc2o1 (stereo partly drawn),IC50,Coagulation factor X,19 nM
same,EC,Plasma,>50 µM
Cc1cc2cc(N/C(=N\C#N)N[C@H]3CCCCN(CC(=O)N4CCC[C@@H]4CN)C3=O)ccc2o1,IC50,Coagulation factor X,22 nM
same,EC,Plasma,27 µM
CCc1cc2cc(N=C(NC#N)N[C@H]3CCCCN(CC(=O)N4CCCC4)C3=O)ccc2o1,IC50,Coagulation factor X,15500 nM
N#C/N=C(\Nc1ccc2occc2c1)N[C@H]1CCCCN(CC(=O)N2CCCC2)C1=O,IC50,Coagulation factor X,84 nM
Cn1cc2cc(N/C(=N\C#N)N[C@H]3CCCCN(CC(=O)N4CCCC4)C3=O)ccc2n1,IC50,Coagulation factor X,2400 nM
COc1cc(N=C(NC#N)N[C@H]2CCCCN(CC(=O)N3CCCC3)C2=O)cc2cc(C)oc12,IC50,Coagulation factor X,14800 nM
Cc1nc2ccc(N/C(=N\C#N)N[C@H]3CCCCN(CC(=O)N4CCCC4)C3=O)cc2o1,IC50,Coagulation factor X,18800 nM
Cc1cc2cc(N=C(NC#N)N[C@H]3CCCCN(CC(=O)N4CCCC4)C3=O)c(F)cc2o1,IC50,Coagulation factor X,76 nM
Cc1cc2cc(N/C(=N\C#N)N[C@H]3CCCCN(CC(=O)N4CCCC4)C3=O)cc(C(F)(F)F)c2o1,IC50,Coagulation factor X,167 nM
Cc1cc2c(F)c(N/C(=N\C#N)N[C@H]3CCCCN(CC(=O)N4CCCC4)C3=O)ccc2o1,IC50,Coagulation factor X,2730 nM
Cc1cc2cc(N/C(=N\C#N)N[C@H]3CCN(CC(=O)N4CCCC4)C3=O)ccc2o1,IC50,Coagulation factor X,> 32000 nM
Cc1nc2ccc(N=C(NC#N)N[C@H]3CCCCN(CC(=O)N4CCCC4)C3=O)cc2[nH]1,IC50,Coagulation factor X,11900 nM
Cc1cn2cc(N/C(=N\C#N)N[C@H]3CCCCN(CC(=O)N4CCCC4)C3=O)ccc2n1,IC50,Coagulation factor X,> 34000 nM
Cc1cc2cc(N/C(=N\C#N)N[C@H]3CCCCN(CC(=O)N4CCCC4)C3=O)cc(F)c2o1,IC50,Coagulation factor X,11 nM
CC(=O)NC[C@@H]1CCCN1C(=O)CN1CCCC[C@H](N/C(=N\C#N)Nc2ccc3oc(C)cc3c2)C1=O,IC50,Coagulation factor X,54 nM
same,EC,Plasma,>50 µM
Cc1cc2cc(N/C(=N\C#N)N[C@H]3CCCCN(CC(=O)N4CCCC4)C3=O)cc(Cl)c2o1,IC50,Coagulation factor X,27 nM
Cc1cc2cc(N=C(NC#N)N[C@H]3CCCCN(CC(=O)N4CCCC4)C3=O)ccc2o1,IC50,Cytochrome P450 3A4 [1],18500 nM
same,IC50,Cytochrome P450 1A2,> 40000 nM
same,half-life,[2],2.9 h
same,Ki,Plasminogen,> 16000 nM
same,IC50,Cytochrome P450 2C8,> 40000 nM
same,half-life,[3],2.4 h
same,bioavailability,[4],50%
same,clearance,Rattus norvegicus,1.7 mL/min/kg
same,Ki,Prothrombin,6600 nM
same,IC50,Cytochrome P450 2C19 [5],> 40000 nM
same,IC50,Cytochrome P450 2C9 [6],> 200000 nM
same,inhibition (INH),[7],Not Active
same,EC50,[8],> 25000 nM
same,MRT,[9],1.9 h
same,inhibition (INH),[10],Not Active
same,bioavailability,[11],49%
same,Vd,[12],0.19 L/kg
same,bioavailability,[13],77%
same,Vd,[14],0.11 L/kg
same,inhibition (INH),[15],Not Active
same,IC50,Cytochrome P450 3A4 [16],> 40000 nM
same,IC50,Cytochrome P450 2B6,> 40000 nM
same,IC50,Cytochrome P450 3A4 [17],> 200000 nM
same,Ki,[18],> 7800 nM
same,IC50,Cytochrome P450 2C19 [19],> 200000 nM
same,MRT,[20],1.5 h
same,IC50,Cytochrome P450 2D6 [21],> 200000 nM
same,Ki,[22],> 18000 nM
same,half-life,[23],10.3 h
same,IC50,Cytochrome P450 2C9 [24],29200 nM
same,inhibition (INH),[25],Not Active
same,Ki,[26],3700 nM
same,IC50,Cytochrome P450 2D6 [27],> 40000 nM
same,clearance,Canis familiaris,0.12 mL/min/kg
same,MRT,[28],16 h
same,clearance,Rhesus monkey,2.2 mL/min/kg
same,Vd,[29],1.8 L/kg
Cc1nc2cc(N/C(=N\C#N)N[C@H]3CCCCN(CC(=O)N4CCCC4)C3=O)ccc2o1,IC50,Coagulation factor X,2680 nM
Cc1cc2cc(N/C(=N\C#N)N[C@H]3CCCN(CC(=O)N4CCCC4)C3=O)ccc2o1,IC50,Coagulation factor X,928 nM
Cc1cc2cc(N/C(=N\C#N)N[C@H]3CCCCN(CC(=O)N4C5CCC4CNC5)C3=O)ccc2o1,IC50,Coagulation factor X,5 nM
same,EC,Plasma,11.5 µM
Cc1cc2cc(N=C(NC#N)N[C@H]3CCCCN(CC(=O)N4CCCC4)C3=O)cc(C)c2o1,IC50,Coagulation factor X,21 nM
